Measured values reported in US6429204B1, “Method of inhibiting cancer growth” (University of Miami, priority 1997, dated 2002).
pIC50: −log10 of the molar value. ≈ marks a conversion by molar mass, not a printed value. Like-named read-outs stand apart in the source and are kept apart here. Marks after values point to notes of the source that are not given here.

Columns and labels:
[1] = test system: in vitro activated gelatinases (MMPs) from MAT LyLu and TSU PR1 conditioned medium; assay: 3H-gelatin gelatinase activity assay on processed conditioned medium of prostate cancer cells; format: biochemical; details: for pIC50: read-out: 50% inhibition dose (IC50), activated gelatinases
Procedure: The effects of CMT-3 and doxycycline on gelatinase activity or expression by prostate cancer cells were tested. First, we tested the capacity of CMT-3 and doxycycline to inhibit MMP secretion into culture medium. Gelatinase activity was measured using a method adapted from the method of Dean and Woessner (1985). Conditioned culture medium was collected from MAT LyLu and TSU PR1 cells treated with CMT-3 or doxycycline for two days. The serum-free culture medium comprised RPMI 1640 basal medium containing insulin (5 μg/mL), transferrin (5 μg/mL), selenious acid ([…]), and gentamicin (2 μg/mL). […] (Dean et al. 1987; Woessner 1991.) The dialyzed medium was assayed for gelatinase activity following activation of latent MMPs with 1 mM p-aminophenyl mercuric acetate (APMA) for 30 min at 37° C. The assay mix was 25 μg ^3H-gelatin (prepared from heat-denatured ^3H-acetylated acid-soluble collagen), 0.1 mL of processed culture-conditioned medium, 1 mM phenylmethyl sulfonyl fluoride (PMSF) in a total volume of 0.5 mL of an assay buffer (20 mM Tris-HCl, pH 7.4, 30 mM NaCl, 0.005% Brij35, 10 mM CaCl2, 2 μM ZnSO4, and 0.02% NaN3). In some cases, 1 mM CaCl2 (instead of 10 mM) was used. Blanks were obtained by adding 1 mM 1,10-phenanthroline. Doxycycline or CMT-3 were added to the assay mixture following activation of the latent MMPs and just before adding the substrate ^3H-gelatin.
(§1) MMP activity in the culture media was examined at 1 mM and 10 mM CaCl2, with no change in [Zn^2+] in the assay buffer. We employed 1 mM CaCl2, as this concentration is closer to physiological concentration, and 10 mM CaCl2, as it is reported to be the optimum concentration in in vitro assays (Woessner 1991). As is shown in Table 2, both CMT-3 and doxycycline inhibited in vitro activated gelatinases.

[2] = test system: activation of MMPs by p-aminophenyl mercuric acetate; assay: Inhibition of APMA activation of MMPs in processed conditioned medium; format: biochemical
Procedure: In addition, the ability of doxycycline or CMT-3 to inhibit APMA activation of MMPs was tested. Processed culture-conditioned medium was incubated with the drugs for 1 hr before adding 1 mM APMA, and the incubation was continued thereafter for 2 hr. ^3H-gelatin was then added and the assy was continued for 4 hr. All assays were performed in duplicate tubes, and repeated at least twice.
as §1

[3] = test system: DU-145 and TSU-PR1 prostate cancer cell lines; assay: Prostate cancer cell viability/proliferation (trypan blue, MTT); format: cell-based, human; details: Homo sapiens; 48 hr exposure; read-out: 50% inhibition dose (IC50), cell proliferation
Excerpt: To determine the cytotoxicity of CMTs on prostate tumor cell lines, TSU-PR1 cells (and cells of other tumor cell lines) were exposed to various CMTs or to doxycycline for 24 hr or 48 hr in a complete medium. Cell viability (percent of live cells) was estimated by counting the cells following trypan blue staining. Cellular viability was also estimated by the tetrazolium dye reduction assay (MTT assay) (Lokeshwar et al. 1995b). Due to the aggressive proliferative capacity of cancer cells, it is assumed that viable cells are actively proliferating. Therefore, the measurement of viability was used as an estimate of proliferation. Results are expressed as Mean±SEM from three separate experiments.

Gelatinase B = molecular target: T1, Gelatinase B (Homo sapiens, UniProt P14780); assay: Zymography with densitometry of C8161 conditioned medium, gelatinase B; format: cell-based; details: 50 μg/mL, 24 hr
T1 construct: endogenous in cells; host or cells: C8161
Procedure: Six hundred thousand (6×10^5) C8161 cells were seeded per well in a 12-well dish coated with a laminin/collagen IV/gelatin matrix in DMEM plus Mito+ and 0.1% gentamicin sulfate. After approximately 1 hr incubation to allow the cells to attach, 50 μg/mL of either doxycycline or one of the other CMTs was added per well and the dish then placed in a 37° C. humidified 5% CO2 incubator. After 24 hr, the supernatants were removed and centrifuged to remove any cells or debris. One volume of Laemmli sample buffer minus reductant was added to two volumes of the medium, and this sample electrophoresed without prior heating or boiling on a 10% SDS-PAGE containing 0.1% gelatin (samples normalized based on the same number of cells per volume of medium per time of incubation). After electrophoresis, the gels were washed with gentle shaking at room temperature for 30 min in 50 mM Tris-HCl (pH 7.5) plus 2.5% TRITON® X100 plus 50 μg/mL of the corresponding CMT used in the original treatment. The gel was then placed in incubation buffer (50 mM Tris-Cl/10 mM CaCl2/150 mM NaCl/0.05% NaN3) also containing 50 μg/mL of the corresponding CMT, and incubated at 37° C. for 20-24 hr. The gels were stained with Coomassie BBR-250, then destained with 10% methanol/10% acetic acid in water until the wash remained clear. A photographic negative of the gel was digitized using a video camera and Snappy Video Snapshot system (Play Inc., Rancho Cordova, Calif.). An integrated density was determined for each of the cleared zones of proteolysis using the software ImagePC8α (freely available from the National Institutes of Health), and the corresponding changes in gelatinolytic activities reported compared to the control samples normalized to a value of 1.0.

DU-145 tumor cells = assay: Alamar Blue viability assay, DU-145; format: cell-based, human
Excerpt: Several cancer cell lines and normal cells were examined in vitro to determine whether tetracycline compounds produce cytotoxic (cell killing) effects. A conventional assay for viability of cultured cells based on redox activity in the cells was employed (Pagé et al. 1993). The assay uses a redox dye Alamar Blue, which is a fluorogenic indicator dye that is converted to a fluorescent red product only when cells are carrying out electron transport activity, a widely accepted criterion of viability.
Cultured cells from three prostate tumor cell lines, LNCAP, DU-145, and PC-3, and normal prostate stromal cells obtained by biopsy of a normal person, were allowed to grow to confluence in multiwell microplates to minimize differences in proliferative activity among the cell types at the time of exposure to the test compound. CMT-3 was added to the wells at concentrations of 10 μM and 20 μM (50 μM also in the case of DU-145). At the start of the experiment, and again at 1, 2, and 3 days, selected wells were incubated with the indicator dye for 3 hr, and the fluorescence was measured on a Cytofluor 2300 fluorescent microplate reader.

T1 sequence (P14780 94-707): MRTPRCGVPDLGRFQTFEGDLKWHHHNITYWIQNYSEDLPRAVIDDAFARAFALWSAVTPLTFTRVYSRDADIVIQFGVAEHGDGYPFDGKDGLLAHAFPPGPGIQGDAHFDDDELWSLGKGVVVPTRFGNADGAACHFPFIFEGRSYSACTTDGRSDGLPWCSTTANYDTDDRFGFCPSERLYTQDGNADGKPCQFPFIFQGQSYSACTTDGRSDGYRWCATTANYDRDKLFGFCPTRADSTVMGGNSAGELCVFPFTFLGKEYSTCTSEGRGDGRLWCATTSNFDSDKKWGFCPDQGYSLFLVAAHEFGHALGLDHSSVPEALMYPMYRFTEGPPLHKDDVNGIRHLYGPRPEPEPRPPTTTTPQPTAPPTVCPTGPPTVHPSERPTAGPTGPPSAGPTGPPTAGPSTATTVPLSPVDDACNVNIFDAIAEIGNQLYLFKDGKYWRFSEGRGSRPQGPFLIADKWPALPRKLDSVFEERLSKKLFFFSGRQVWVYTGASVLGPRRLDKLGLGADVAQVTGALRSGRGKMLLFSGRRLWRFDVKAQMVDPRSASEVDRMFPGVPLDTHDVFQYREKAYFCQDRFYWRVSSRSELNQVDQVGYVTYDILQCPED

With `NC(=O)C1=C(O)CC2CC3Cc4cccc(O)c4C(=O)C3=C(O)C2(O)C1=O` (centres unmarked) [CMT-3, 6-demethyl-6-deoxy-4-de(dimethylamino)tetracycline] the “Percent Inhibition (gelatinase activity)” value ([1]; 0.25 μM drug, 10 mM CaCl2) was 31.5 ± 1.2%, the “Percent Inhibition (gelatinase activity)” value ([1]; 0.50 μM drug, 1 mM CaCl2) was 84.8 ± 10.1% and the “Percent Inhibition (gelatinase activity)” value ([1]; 0.50 μM drug, 10 mM CaCl2) was 37.8 ± 7.5^b %. For the same molecule, the “Percent Inhibition (gelatinase activity)” value ([1]; 1.0 μM drug, 1 mM CaCl2) was 96.7 ± 4.6^a %, the “Percent Inhibition (gelatinase activity)” value ([1]; 1.0 μM drug, 10 mM CaCl2) was 45.1 ± 2.9% and the “Percent Inhibition (gelatinase activity)” value ([1]; 2.0 μM drug, 10 mM CaCl2) was 51.2 ± 2.6%. The “Percent Inhibition (gelatinase activity)” value ([1]; 5.0 μM drug, 1 mM CaCl2) was 97.2 ± 2.9%, the “Percent Inhibition (gelatinase activity)” value ([1]; 5.0 μM drug, 10 mM CaCl2) was 52.4 ± 3.5% and the “Percent Inhibition (gelatinase activity)” value ([1]; 10 μM drug, 1 mM CaCl2) was 100%. The “Percent Inhibition (gelatinase activity)” value ([1]; 10 μM drug, 10 mM CaCl2) was 69.9 ± 10.5%, the “Percent Inhibition (gelatinase activity)” value ([1]; 20 μM drug, 10 mM CaCl2) was 78.9 ± 11.4% and the “Percent Inhibition (gelatinase activity)” value ([1]; 50 μM drug, 10 mM CaCl2) was 94.2 ± 3.3%. The pIC50 ([1]; 1 mM CaCl2) was 6.30, the pIC50 ([1]; 10 mM CaCl2) was ~5.82 and the “IC50, inhibition of activation of MMPs by APMA” value ([2]; 10 mM CaCl2) was 1.0 µg/mL. The pIC50 ([2]; 10 mM CaCl2, value in brackets) was 5.66, the IC50 [3] was 2.7 µg/mL (≈ 7.27 µM) and the “Gelatinase B, integrated density normalized to control 1.00” value (Gelatinase B) was 0.03. For the same molecule, the cytotoxicity (DU-145 tumor cells; 20 μM) was “some cytotoxicity appearing after 72 hr” and the cytotoxicity (DU-145 tumor cells; 50 μM, over 72 hr) was “significant cytoxicity”.
